Experimental data from patent publication US20240228535A1 (priority 2022, published 2024).

Each molecule was assayed against SARS2 coronavirus 3CL protease (Severe acute respiratory syndrome coronavirus 2, UniProt P0DTD1) (assay: biochemical). Details: 5 nM enzyme, 30 min pre-incubation with compound, 15 μM peptide substrate, 4 h at room temperature; read-out: FRET Potency (nM); IC50 values in the SARS2 3CLPro FRET assay.

Row | SMILES | IC50
1 | O=C(NC1CC1)C(=O)[C@H](C[C@@H]1CCNC1=O)NC(=O)c1cc(Cl)ccc1NC(=O)C(F)(F)F [Example 51, 5-chloro-N-[(1S)-3-(cyclopropylamino)-2,3-dioxo-1-[[(3S)-2-oxopyrrolidin-3-yl]methyl]propyl]-2-[(2,2,2-trifluoroacetyl)amino] benzamide] | 8.6 nM
2 | C[C@@H]1C[C@@H](C[C@H](NC(=O)c2cc(Cl)cnc2NC(=O)CCC(F)(F)F)C(=O)C(=O)NC2CC2)C(=O)N1 [Example 52, 5-chloro-N-[(1S)-3-(cyclopropylamino)-1-[[(3S,5R)-5-methyl-2-oxo-pyrrolidin-3-yl]methyl]-2,3-dioxo-propyl]-2-(4,4,4-trifluorobutanoylamino) pyridine-3-carboxamide] | 8.4 nM
3 | C[C@@H]1C[C@@H](C[C@H](NC(=O)c2cc(Cl)c(F)cc2NC(=O)CCC(F)(F)F)C(=O)C(=O)NC2CC2)C(=O)N1 [Example 53, 5-chloro-N-[(1S)-3-(cyclopropylamino)-1-[[(3S,5R)-5-methyl-2-oxo-pyrrolidin-3-yl]methyl]-2,3-dioxo-propyl]-4-fluoro-2-(4,4,4-trifluorobutanoylamino) benzamide] | 8.3 nM
4 | C[C@@H]1C[C@@H](C[C@H](NC(=O)c2cc(Cl)ccc2NC(=O)C23CC(F)(C2)C3)C(=O)C(=O)NC2CC2)C(=O)N1 [Example 54, N-[4-chloro-2-[[(1S)-3-(cyclopropylamino)-1-[[(3S,5R)-5-methyl-2-oxo-pyrrolidin-3-yl]methyl]-2,3-dioxo-propyl]carbamoyl]phenyl]-3-fluoro-bicyclo[1.1.1]pentane-1-carboxamide] | 8.2 nM
5 | CNC(=O)C(=O)[C@H](C[C@@H]1C[C@@H](C)NC1=O)NC(=O)c1cc(Cl)ccc1NC(=O)c1ccc(C(F)(F)F)cn1 [Example 55, N-[4-chloro-2-[[(1S)-3-(methylamino)-1-[[(3S,5R)-5-methyl-2-oxo-pyrrolidin-3-yl]methyl]-2,3-dioxo-propyl]carbamoyl]phenyl]-5-(trifluoromethyl)pyridine-2-carboxamide] | 8.2 nM
6 | O=C(CCC(F)(F)F)Nc1cc(F)c(Cl)cc1C(=O)N[C@@H](C[C@@H]1CCNC1=O)C(=O)C(=O)NC1CC1 [Example 56, 5-chloro-N-[(1S)-3-(cyclopropylamino)-2,3-dioxo-1-[[(3S)-2-oxopyrrolidin-3-yl]methyl]propyl]-4-fluoro-2-(4,4,4-trifluorobutanoylamino) benzamide] | 8.1 nM
7 | CNC(=O)C(=O)[C@H](C[C@@H]1C[C@@H](C)NC1=O)NC(=O)c1cc(Cl)cnc1NC(=O)c1ccc(F)cc1 [Example 57, 5-chloro-2-[(4-fluorobenzoyl)amino]-N-[(1S)-3-(methylamino)-1-[[(3S,5R)-5-methyl-2-oxo-pyrrolidin-3-yl]methyl]-2,3-dioxo-propyl]pyridine-3-carboxamide] | 8.1 nM
8 | C[C@@H]1C[C@@H](C[C@H](NC(=O)c2cc(Cl)cnc2NC(=O)c2cccc(F)c2)C(=O)C(=O)NC2CC2)C(=O)N1 [Example 58, 5-chloro-N-[(1S)-3-(cyclopropylamino)-1-[[(3S,5R)-5-methyl-2-oxo-pyrrolidin-3-yl]methyl]-2,3-dioxo-propyl]-2-[(3-fluorobenzoyl)amino] pyridine-3-carboxamide] | 8.1 nM
9 | C[C@@H]1C[C@@H](C[C@H](NC(=O)c2cc(Cl)ccc2NC(=O)C2CC(F)(F)C2)C(=O)C(=O)NC2CC2)C(=O)N1 [Example 59, 5-chloro-N-[(1S)-3-(cyclopropylamino)-1-[[(3S,5R)-5-methyl-2-oxo-pyrrolidin-3-yl]methyl]-2,3-dioxo-propyl]-2-[(3,3-difluorocyclobutanecarbonyl)amino]benzamide] | 8 nM
10 | C[C@@H]1C[C@@H](C[C@H](NC(=O)c2cc(C#N)ccc2NC(=O)c2cccc(C(F)(F)F)c2)C(=O)C(=O)NC2CC2)C(=O)N1 [Example 61, 5-cyano-N-[(1S)-3-(cyclopropylamino)-1-[[(3S,5R)-5-methyl-2-oxo-pyrrolidin-3-yl]methyl]-2,3-dioxo-propyl]-2-[[3-(trifluoromethyl)benzoyl]amino]benzamide] | 7.7 nM
